# Laboratory results from patent US20070149600A1, “Substituted octahydroisoindoles” (priority 2005, published 2007).
# Structures can show the parent of a compound that is named as a salt.
# Target: T1, human MCH1R receptor (Homo sapiens, UniProt Q99705)
# T1 construct: host or cells: CHO-K1
# Assay: Binding assay: [125I]-MCH displacement by SPA on CHO-K1 hMCHR1 membranes
# Conditions: calculated from IC50 using the Cheng Prushoff equation; 0.2 nM [125I]-MCH; CHO-K1 hMCHRI membranes
# Protocol: The compounds according to the invention were evaluated for their binding to the human MCH1R receptor by the following method:
# Compounds. MCH peptide was purchased from Phoenix pharmaceuticals. (Phe^13, [^125I]Tyr^19 Melanine-Concentrating Hormone (human, mouse, rat) ([^125I]-MCH) was obtained from NEN life Science Products. Inc. Boston, Mass. Wheat germ agglutinine SPA beads (RPNQ 0001) were obtained from Amersham-Pharmacia Biotech. All other reagents used are of highest purity from different resources available. Protein Kits, Micro BCA™ Protein Assay Reagent Kit (Cat No. 23235) were purchased from Piece, Rockford, Ill., USA. […]
# The radio labeled [^125I]-MCH was diluted with cold MCH in ratio 1:3. […] The results were calculated using Excel program and the curves were drawn using a program GraphPad Prism.
# For screening of the substances the amount of the beads used was 0.25 mg/well and the amount of the membrane protein was 4 μg/well. […] The samples were counted using Microbeta counter (Wallac Trilux 1450 Micro beta counter, Wallac, Finland) for 2 minutes and the results were calculated by using the computer program Activity Base.
# The Ki value is calculated from IC50 using the Cheng Prushoff equation: Ki=IC50(1+[S]/Km) [Cheng, Y. C.; Prushoff, W. H. Biochem. Pharmacol. 1973, 22, 3099-3108].
# T1 sequence (Q99705 whole entry): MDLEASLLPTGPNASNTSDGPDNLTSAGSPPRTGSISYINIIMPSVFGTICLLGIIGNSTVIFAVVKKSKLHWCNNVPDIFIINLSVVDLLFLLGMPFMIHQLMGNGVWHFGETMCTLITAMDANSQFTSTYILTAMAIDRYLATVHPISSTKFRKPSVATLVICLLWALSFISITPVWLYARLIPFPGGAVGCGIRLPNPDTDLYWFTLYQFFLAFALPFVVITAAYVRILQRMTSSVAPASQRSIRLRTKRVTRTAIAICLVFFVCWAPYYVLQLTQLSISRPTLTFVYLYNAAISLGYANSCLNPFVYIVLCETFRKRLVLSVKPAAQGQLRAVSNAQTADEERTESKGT
row,Structure (SMILES),Ki
1,"COc1ccc([C@@]23CC[C@@H](NC(=O)c4ccc(C(F)(F)F)cc4F)C[C@@H]2CN(C)C3)cc1OC (relative stereo) [Example 44, N-[(3aS*,5R*,7aR*)-7a-(3,4-Dimethoxyphenyl)-2-methyloctahydro-1H-isoindol-5-yl]-2-fluoro-4-(trifluoromethyl)benzamide trifluoroacetate]",288 nM
2,"COc1ccc([C@@]23CC[C@@H](NC(=O)Nc4cc(C)cc(C)c4)C[C@@H]2CN(C)C3)cc1OC (relative stereo) [Example 48, N-[(3 aS*,5R*,7aR*)-7a-(3,4-Dimethoxyphenyl)-2-methyloctahydro-1H-isoindol-5-yl]-N′-(3,5-dimethylphenyl)urea trifluoroacetate]",74 nM
